Values after ≈ are worked out from the molar mass of the structure shown. Read-outs that look alike come from different tables or passages of the source.
What was measured:
[1] = tested on: Candida albicans ATCC 11651; experiment: In vivo systemic Candida infection in mice, primary assay; set-up: species or system Candida albicans; CF-1 female mice; settings: Candida albicans, 150 mg/kg per day, read-out: % Survival
Method in brief: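 CF-1 female mice (20 g, 10 per group) were infected IV with 0.2 ml of 1×10^7/ml C. albicans ATCC 11651, then given test compound subcutaneously at 50 or 150 mg/kg/day at 1 and 6 h post-infection and once daily for three more days. Survival was followed for 21 days against infected untreated mice; ≥70% protection at 14 days was scored active.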

Rhizoctonia solani [2] = experiment: Example F rice sheath blight; assay type: in vivo; settings: Rhizoctonia solani, 144 h, 100 PPM; read-out: disease control rating, Ex. F
Method in brief: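 Foliar run-off spray, rice seedlings: compound at 100 or 20 ppm in aqueous 250 ppm polyhydric alcohol ester surfactant, acetone 6% v/v final.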

Pythium aphanadermatum = experiment: Example J cucumber damping off; assay type: in vivo; settings: Pythium, 336 h; 5 kg/ha; read-out: disease control rating, Ex. J
Method in brief: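 Seeds and soil were inoculated with a mix of sand, cereal and Pythium aphanadermatum mycelium, the fungus responsible for cucumber damping off. They were kept in a growth chamber at 30° C. for 14 days, and disease was then rated to assess control.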

Rhizoctonia solani [3] = experiment: Example K cotton blight; assay type: in vivo; settings: 336 h, 5 kg/ha, read-out: disease control rating, Ex. K
Description: […] Seeds and soil were then inoculated with a mixture of sand, cereal and mycelium of the fungus Rhizoctonia solani, causal agent of cotton blight, and incubated in a growth chamber at 30° C. for 14 days. Disease ratings were then made.

REDROOT PIGWEED [4] = experiment: Test E; assay type: in vivo, Amaranthus retroflexus
WILD BUCKWHEAT = experiment: Test E; assay type: in vivo, Polygonum convolvulus
GREEN FOXTAIL = experiment: Test E; assay type: in vivo, Setaria viridis
[5] = tested on: Candida albicans ATCC 11651; experiment: In vitro antifungal MIC, microtiter broth dilution; settings: Candida albicans, ATCC11651, 24 h, read-out: MIC values, C. albicans, 30°, 24 hours
SCIRPUS = experiment: Test C rice paddy; assay type: in vivo, Scirpus paludosus; settings: Bolboschoenus maritimus, 504 h, 21 days, read-out: plant response; for pest or weed control at 64 g/ha: 0064 G/HA; for pest or weed control at 125 g/ha: 0125 G/HA; for pest or weed control at 250 g/ha: 0250 G/HA; for pest or weed control at 500 g/ha: 0500 G/HA
Excerpt: (§1) Sixteen cm diameter Airlite plastic pots were partially filled with Tama slit loam soil and the soil saturated with water. Japonica and Indica rice seedlings a the 2.0 to 2.5 leaf stage were transplanted into 1/3 of the pots. Into another third of the pots were transplanted seedling or sprouted tubers of water plantain (Alisma trivale), Scripus (Scirpus paludosus), Cyperus (Cyperus esculentus), and arrowhead (Sagittaria spp.). The remaining pots were planted with barnyardgrass (Echinochloa crusgalli) seeds and sprouted tubes of water chestnut (Eleocharis spp.). These weeds all represent major rice weeds or genera of weeds important in rice. Three to four days after planting, the water level was raised to 3 cm (about 1200 ml/pot) and maintained a this level throughout the test. Chemical treatments were applied directly to the paddy water, within 24 hours of raising the water, after being formulated in a nonphytotoxic solvent. The pots were maintained in the greenhouse.

YELLOW NUTSEDGE = experiment: Test C rice paddy; assay type: in vivo, Cyperus esculentus; settings: 21 days
Excerpt: as §1

G4646 CORN = experiment: Test D Corn and Sorghum Herbicide Test; assay type: in vivo, Zea mays
COCKLEBUR = experiment: Test D; assay type: in vivo, Xanthium pensylvanicum
REDROOT PIGWEED [6] = experiment: Test D; assay type: in vivo, Amaranthus retroflexus

Question: With `C=C(c1ccc(F)cc1)C(O)(Cn1cncn1)c1ccccc1F` (stereo not drawn) [Example 644] as the compound, how does the responders at 150 mg/kg ([1]; ATCC11651, 168 h, day 7) read?
Answer: 80%

Question: And the responders at 150 mg/kg ([1]; ATCC11651, 336 h, day 14)?
Answer: 70%

Question: And the responders at 150 mg/kg ([1]; ATCC11651, 504 h, day 21)?
Answer: 50%

Question: And the pest or weed control at 100 ppm (Rhizoctonia solani [2])?
Answer: 100%

Question: What about the pest or weed control at 5000 g/ha (Pythium aphanadermatum) of the same compound?
Answer: 0%

Question: What about the pest or weed control at 5000 g/ha (Rhizoctonia solani [3]) of the same compound?
Answer: 0%

Question: And the plant response (REDROOT PIGWEED [4]; POSTEMERGENCE 0064 GM/HA)?
Answer: 50%

Question: What about the plant response (REDROOT PIGWEED [4]; POSTEMERGENCE 0125 GM/HA) of the same compound?
Answer: 50%

Question: And the plant response (REDROOT PIGWEED [4]; POSTEMERGENCE 0250 GM/HA)?
Answer: 50%

Question: What about the plant response (REDROOT PIGWEED [4]; POSTEMERGENCE 0500 GM/HA) of the same compound?
Answer: 60%

Question: What about the plant response (REDROOT PIGWEED [4]; PREEMERGENCE 0500 GM/HA) of the same compound?
Answer: 80%

Question: What about the plant response (WILD BUCKWHEAT; POSTEMERGENCE 0064 GM/HA) of the same compound?
Answer: 0%

Question: And the plant response (WILD BUCKWHEAT; POSTEMERGENCE 0125 GM/HA)?
Answer: 0%

Question: And the plant response (WILD BUCKWHEAT; POSTEMERGENCE 0250 GM/HA)?
Answer: 0%

Question: And the plant response (WILD BUCKWHEAT; POSTEMERGENCE 0500 GM/HA)?
Answer: 0%

Question: And the plant response (WILD BUCKWHEAT; PREEMERGENCE 0500 GM/HA)?
Answer: 30%

Question: What about the plant response (GREEN FOXTAIL; POSTEMERGENCE 0064 GM/HA) of the same compound?
Answer: 30%

Question: What about the plant response (GREEN FOXTAIL; POSTEMERGENCE 0125 GM/HA) of the same compound?
Answer: 30%

Question: What about the plant response (GREEN FOXTAIL; POSTEMERGENCE 0250 GM/HA) of the same compound?
Answer: 50%

Question: What about the plant response (GREEN FOXTAIL; POSTEMERGENCE 0500 GM/HA) of the same compound?
Answer: 50%

Question: And the plant response (GREEN FOXTAIL; PREEMERGENCE 0500 GM/HA)?
Answer: 100%

Question: And the MIC [5]?
Answer: 0.03 µg/mL (≈ 0.0916 µM)

Question: With `C=C(c1ccccc1)C(O)(Cn1cncn1)c1ccc(Cl)cc1Cl` (stereo not drawn) [Example 50, 2-(2,4-Dichlorophenyl)-3-phenyl-1-(1H-1,2,4-triazol-1-yl)-3-buten-2-ol] as the compound, how does the responders at 150 mg/kg ([1]; ATCC11651, 168 h, day 7) read?
Answer: 100%

Question: What about the responders at 150 mg/kg ([1]; ATCC11651, 336 h, day 14) of the same compound?
Answer: 90%

Question: And the responders at 150 mg/kg ([1]; ATCC11651, 504 h, day 21)?
Answer: 50%

Question: And the pest or weed control at 100 ppm (Rhizoctonia solani [2])?
Answer: 93%

Question: What about the pest or weed control at 5000 g/ha (Pythium aphanadermatum) of the same compound?
Answer: 0%

Question: And the pest or weed control at 64 g/ha (SCIRPUS)?
Answer: 0%

Question: And the pest or weed control at 125 g/ha (SCIRPUS)?
Answer: 0%

Question: And the pest or weed control at 250 g/ha (SCIRPUS)?
Answer: 0%

Question: What about the pest or weed control at 500 g/ha (SCIRPUS) of the same compound?
Answer: 0%

Question: And the pest or weed control at 1000 g/ha (SCIRPUS)?
Answer: 0%

Question: And the plant response (YELLOW NUTSEDGE; 0064 G/HA)?
Answer: 0

Question: And the plant response (YELLOW NUTSEDGE; 0125 G/HA)?
Answer: 0

Question: What about the plant response (YELLOW NUTSEDGE; 0250 G/HA) of the same compound?
Answer: 0

Question: And the plant response (YELLOW NUTSEDGE; 0500 G/HA)?
Answer: 30

Question: And the plant response (YELLOW NUTSEDGE; 1000 G/HA)?
Answer: 50

Question: What about the plant response (G4646 CORN; POSTEMERGENCE 0250 GM/HA) of the same compound?
Answer: 0%

Question: And the plant response (G4646 CORN; POSTEMERGENCE 0500 GM/HA)?
Answer: 20%

Question: And the plant response (G4646 CORN; PREEMERGENCE 0064 GM/HA)?
Answer: 0%

Question: And the plant response (G4646 CORN; PREEMERGENCE 0125 GM/HA)?
Answer: 0%

Question: And the plant response (G4646 CORN; PREEMERGENCE 0250 GM/HA)?
Answer: 0%

Question: And the plant response (G4646 CORN; PREEMERGENCE 0500 GM/HA)?
Answer: 0%

Question: And the plant response (COCKLEBUR; POSTEMERGENCE 0250 GM/HA)?
Answer: 25%

Question: And the plant response (COCKLEBUR; POSTEMERGENCE 0500 GM/HA)?
Answer: 40%

Question: And the plant response (COCKLEBUR; PREEMERGENCE 0064 GM/HA)?
Answer: 0%

Question: What about the plant response (COCKLEBUR; PREEMERGENCE 0125 GM/HA) of the same compound?
Answer: 0%

Question: And the plant response (COCKLEBUR; PREEMERGENCE 0250 GM/HA)?
Answer: 0%

Question: And the plant response (COCKLEBUR; PREEMERGENCE 0500 GM/HA)?
Answer: 25%

Question: And the plant response (REDROOT PIGWEED [6]; POSTEMERGENCE 0250 GM/HA)?
Answer: 65%

Question: What about the plant response (REDROOT PIGWEED [6]; POSTEMERGENCE 0500 GM/HA) of the same compound?
Answer: 95%

Question: And the plant response (REDROOT PIGWEED [6]; PREEMERGENCE 0064 GM/HA)?
Answer: 0%

Question: What about the plant response (REDROOT PIGWEED [6]; PREEMERGENCE 0125 GM/HA) of the same compound?
Answer: 40%

Question: What about the plant response (REDROOT PIGWEED [6]; PREEMERGENCE 0250 GM/HA) of the same compound?
Answer: 85%

Question: And the plant response (REDROOT PIGWEED [6]; PREEMERGENCE 0500 GM/HA)?
Answer: 100%

Question: And the MIC [5]?
Answer: 0.1 µg/mL (≈ 0.278 µM)

Question: With `C=C(c1ccc(F)cc1)C(O)(Cn1ncnc1S)c1ccc(F)cc1F` (stereo not drawn) [Example 1304] as the compound, how does the pest or weed control at 100 ppm (Rhizoctonia solani [2]) read?
Answer: 88%

Question: And the pest or weed control at 5000 g/ha (Pythium aphanadermatum)?
Answer: 0%

Question: And the pest or weed control at 5000 g/ha (Rhizoctonia solani [3])?
Answer: 0%

Question: What about the pest or weed control at 64 g/ha (SCIRPUS) of the same compound?
Answer: 0%

Question: What about the pest or weed control at 125 g/ha (SCIRPUS) of the same compound?
Answer: 0%

Question: What about the pest or weed control at 250 g/ha (SCIRPUS) of the same compound?
Answer: 65%

Question: What about the pest or weed control at 500 g/ha (SCIRPUS) of the same compound?
Answer: 70%

Question: And the pest or weed control at 1000 g/ha (SCIRPUS)?
Answer: 80%

Question: What about the plant response (YELLOW NUTSEDGE; 0064 G/HA) of the same compound?
Answer: 0

Question: And the plant response (YELLOW NUTSEDGE; 0125 G/HA)?
Answer: 0

Question: And the plant response (YELLOW NUTSEDGE; 0250 G/HA)?
Answer: 0

Question: And the plant response (YELLOW NUTSEDGE; 0500 G/HA)?
Answer: 0

Question: And the plant response (YELLOW NUTSEDGE; 1000 G/HA)?
Answer: 0

Question: Which results are given for `C=C(c1ccccc1)C(O)(Cn1cncn1)c1ccc(F)cc1F` (stereo not drawn) [Example 52, 2-(2,4-Difluorophenyl)-3-phenyl-1-(1H-1,2,4-triazol-1-yl)-3-buten-2-ol]?
Answer: responders at 150 mg/kg ([1]; ATCC11651, 168 h, day 7): 100%; responders at 150 mg/kg ([1]; ATCC11651, 336 h, day 14): 100%; responders at 150 mg/kg ([1]; ATCC11651, 504 h, day 21): 90%; pest or weed control at 100 ppm (Rhizoctonia solani [2]): 81%; pest or weed control at 5000 g/ha (Pythium aphanadermatum): 0%; plant response (REDROOT PIGWEED [4]; POSTEMERGENCE 0064 GM/HA): 0%; plant response (REDROOT PIGWEED [4]; POSTEMERGENCE 0125 GM/HA): 50%; plant response (REDROOT PIGWEED [4]; POSTEMERGENCE 0250 GM/HA): 90%; plant response (REDROOT PIGWEED [4]; POSTEMERGENCE 0500 GM/HA): 90%; plant response (REDROOT PIGWEED [4]; PREEMERGENCE 0250 GM/HA): 100%; plant response (WILD BUCKWHEAT; POSTEMERGENCE 0064 GM/HA): 0%; plant response (WILD BUCKWHEAT; POSTEMERGENCE 0125 GM/HA): 0%; plant response (WILD BUCKWHEAT; POSTEMERGENCE 0250 GM/HA): 0%; plant response (WILD BUCKWHEAT; POSTEMERGENCE 0500 GM/HA): 30%; plant response (WILD BUCKWHEAT; PREEMERGENCE 0250 GM/HA): 20%; plant response (GREEN FOXTAIL; POSTEMERGENCE 0064 GM/HA): 0%; plant response (GREEN FOXTAIL; POSTEMERGENCE 0125 GM/HA): 0%; plant response (GREEN FOXTAIL; POSTEMERGENCE 0250 GM/HA): 40%; plant response (GREEN FOXTAIL; POSTEMERGENCE 0500 GM/HA): 75%; plant response (GREEN FOXTAIL; PREEMERGENCE 0250 GM/HA): 100%; MIC [5]: 0.03 µg/mL (≈ 0.0916 µM)
